Measurements reported in patent US20150105252A1, “SUBSTITUTED PYRAZOLES AS HERBICIDES” (E I DU PONT DE NEMOURS AND COMPANY, priority 2013, published 2015).

How the values were obtained:
Assay in all cases: Test C postemergence
crabgrass, large = assay type: in vivo, Digitaria sanguinalis
Excerpt: (§1) Seeds of plant species selected from blackgrass (Alopecurus myosuroides), ryegrass, Italian (Italian ryegrass, Lolium multiflorum), wheat (winter wheat, Triticum aestivum), galium (catchweed bedstraw, Galium aparine), corn (Zea mays), crabgrass, large (large crabgrass, Digitaria sanguinalis), foxtail, giant (giant foxtail, Setaria faberii), johnsongrass (Sorghum halepense), lambsquarters (Chenopodium album), morningglory (Ipomoea coccinea), nutsedge, yellow (yellow nutsedge, Cyperus esculentus), pigweed (redroot pigweed, Amaranthus retroflexus), ragweed (common ragweed, Ambrosia elation), soybean (Glycine max), barnyardgrass (Echinochloa crus-galli), oilseed rape (Brassica napus), waterhemp (common waterhemp, Amaranthus rudis), oat, wild (wild oat, Avena fatua), kochia (Kochia scoparia), Surinam grass (Brachiaria decumbens), foxtail, green (green foxtail, Setaria viridis), goosegrass (Eleusine indica), bromegrass, downy (downy bromegrass, Bromus tectorum), nightshade (eastern black nightshade, Solanum ptycanthum), cocklebur (common cocklebur, Xanthium strumarium), cupgrass, woolly (woolly cupgrass, Eriochloa villosa), bermudagrass (Cynodon dactylon), sunflower, (common oilseed sunflower, Helianthus annuus), Russian thistle (Salsola kali), and velvetleaf (Abutilon theophrasti) were planted into a blend of loam soil and sand and treated preemergence with test chemicals formulated in a non-phytotoxic solvent mixture which included a surfactant.
(§2) At the same time, plants selected from these crop and weed species and also chickweed (common chickweed, Stellaria media), canarygrass (littleseed canarygrass, Phalaris minor), and deadnettle (henbit deadnettle, Lamium amplexicaule), were planted in pots containing Redi-Earth® planting medium (Scotts Company, 14111 Scottslawn Road, Marysville, Ohio 43041) comprising spaghnum peat moss, vermiculite, wetting agent and starter nutrients and treated with postemergence applications of test chemicals formulated in the same manner. Plants ranged in height from 2 to 18 cm (1- to 4-leaf stage) for postemergence treatments. Treated plants and controls were maintained in a greenhouse for 13 to 15 days, after which time all species were compared to controls and visually evaluated. Plant response ratings, summarized in Table C, are based on a scale of 0 to 100 where 0 is no effect and 100 is complete control. A dash (-) response means no test result.

oat, wild = assay type: in vivo, Avena fatua
Excerpt: as §1, §2

velvetleaf = assay type: in vivo, Abutilon theophrasti
Excerpt: as §1, §2

johnsongrass = assay type: in vivo, Sorghum halepense
Excerpt: as §1, §2

corn = assay type: in vivo, Zea mays
Excerpt: as §1, §2

barnyardgrass = assay type: in vivo, Echinochloa crus-galli
Excerpt: as §1, §2

chickweed = assay type: in vivo, Stellaria media
Excerpt: as §1, §2

lambsquarters = assay type: in vivo, Chenopodium album
Excerpt: as §1, §2

kochia = assay type: in vivo, Kochia scoparia
Excerpt: as §1, §2

ragweed = assay type: in vivo, Ambrosia elation
Excerpt: as §1, §2

blackgrass = assay type: in vivo, Alopecurus myosuroides
Excerpt: as §1, §2

galium = assay type: in vivo, Galium aparine
Excerpt: as §1, §2

pigweed = assay type: in vivo, Amaranthus retroflexus
Excerpt: as §1, §2

wheat = assay type: in vivo, Triticum aestivum
Excerpt: as §1, §2

soybean = assay type: in vivo, Glycine max
Excerpt: as §1, §2

foxtail, giant = assay type: in vivo, Setaria faberii
Excerpt: as §1, §2

ryegrass, Italian = assay type: in vivo, Lolium multiflorum
Excerpt: as §1, §2

[1] = Postemergence, 31 g ai/ha, visually evaluated after 13 to 15 days
[2] = postemergence, 62 g ai/ha, scale 0 to 100
[3] = postemergence, 250 g ai/ha, scale 0 to 100 (0 no effect, 100 complete control)
[4] = postemergence, 125 g ai/ha, scale 0 to 100, 0 no effect, 100 complete control

`CCCc1cc(C(=O)NCC)nn1Cc1ccnc(C(F)(F)F)c1` [Compound 95] was tested, and the “Plant response rating (scale of 0 to 100 where 0 is no effect and 100 is complete control), Crabgrass, Large” value (crabgrass, large; [1]) was 5, the “Crabgrass, Large plant response rating” value (crabgrass, large; [2]) was 10 and the “Plant response rating, Crabgrass, Large” value (crabgrass, large; [3]) was 45. For the same molecule, the “Plant response rating, Crabgrass, Large” value (crabgrass, large; [4]) was 40, the “Plant response rating (scale of 0 to 100 where 0 is no effect and 100 is complete control), Oat, Wild” value (oat, wild; [1]) was 5 and the “Oat, Wild plant response rating” value (oat, wild; [2]) was 5. For the same molecule, the “Plant response rating, Oat, Wild” value (oat, wild; [3]) was 50, the “Plant response rating, Oat, Wild” value (oat, wild; [4]) was 15 and the “Plant response rating (scale of 0 to 100 where 0 is no effect and 100 is complete control), Velvetleaf” value (velvetleaf; [1]) was 10. The “Velvetleaf plant response rating” value (velvetleaf; [2]) was 15, the “Plant response rating, Velvetleaf” value (velvetleaf; [3]) was 40 and the “Plant response rating, Velvetleaf” value (velvetleaf; [4]) was 35. For the same molecule, the “Plant response rating (scale of 0 to 100 where 0 is no effect and 100 is complete control), Johnsongrass” value (johnsongrass; [1]) was 0, the “Johnsongrass plant response rating” value (johnsongrass; [2]) was 0 and the “Plant response rating, Johnsongrass” value (johnsongrass; [3]) was 30. The “Plant response rating, Johnsongrass” value (johnsongrass; [4]) was 5, the “Plant response rating (scale of 0 to 100 where 0 is no effect and 100 is complete control), Corn” value (corn; [1]) was 5 and the “Corn plant response rating” value (corn; [2]) was 10. The “Plant response rating, Corn” value (corn; [3]) was 10, the “Plant response rating, Corn” value (corn; [4]) was 10 and the “Plant response rating (scale of 0 to 100 where 0 is no effect and 100 is complete control), Barnyardgrass” value (barnyardgrass; [1]) was 0. For the same molecule, the “Barnyardgrass plant response rating” value (barnyardgrass; [2]) was 0, the “Plant response rating, Barnyardgrass” value (barnyardgrass; [3]) was 30 and the “Plant response rating, Barnyardgrass” value (barnyardgrass; [4]) was 0. The “Plant response rating (scale of 0 to 100 where 0 is no effect and 100 is complete control), Chickweed” value (chickweed; [1]) was 85, the “Chickweed plant response rating” value (chickweed; [2]) was 100 and the “Plant response rating, Chickweed” value (chickweed; [3]) was 100. For the same molecule, the “Plant response rating, Chickweed” value (chickweed; [4]) was 100, the “Plant response rating (scale of 0 to 100 where 0 is no effect and 100 is complete control), Lambsquarters” value (lambsquarters; [1]) was 40 and the “Lambsquarters plant response rating” value (lambsquarters; [2]) was 80. The “Plant response rating, Lambsquarters” value (lambsquarters; [3]) was 98, the “Plant response rating, Lambsquarters” value (lambsquarters; [4]) was 90 and the “Plant response rating (scale of 0 to 100 where 0 is no effect and 100 is complete control), Kochia” value (kochia; [1]) was 50. The “Kochia plant response rating” value (kochia; [2]) was 70, the “Plant response rating, Kochia” value (kochia; [3]) was 85 and the “Plant response rating, Kochia” value (kochia; [4]) was 85. The “Plant response rating (scale of 0 to 100 where 0 is no effect and 100 is complete control), Ragweed” value (ragweed; [1]) was 45, the “Ragweed plant response rating” value (ragweed; [2]) was 50 and the “Plant response rating, Ragweed” value (ragweed; [3]) was 85. For the same molecule, the “Plant response rating, Ragweed” value (ragweed; [4]) was 50, the “Plant response rating (scale of 0 to 100 where 0 is no effect and 100 is complete control), Blackgrass” value (blackgrass; [1]) was 5 and the “Blackgrass plant response rating” value (blackgrass; [2]) was 5. For the same molecule, the “Plant response rating, Blackgrass” value (blackgrass; [3]) was 35, the “Plant response rating, Blackgrass” value (blackgrass; [4]) was 15 and the “Plant response rating (scale of 0 to 100 where 0 is no effect and 100 is complete control), Galium” value (galium; [1]) was 60. The “Galium plant response rating” value (galium; [2]) was 80, the “Plant response rating, Galium” value (galium; [3]) was 90 and the “Plant response rating, Galium” value (galium; [4]) was 90. The “Plant response rating (scale of 0 to 100 where 0 is no effect and 100 is complete control), Pigweed” value (pigweed; [1]) was 10, the “Pigweed plant response rating” value (pigweed; [2]) was 40 and the “Plant response rating, Pigweed” value (pigweed; [3]) was 70. For the same molecule, the “Plant response rating, Pigweed” value (pigweed; [4]) was 40, the “Plant response rating (scale of 0 to 100 where 0 is no effect and 100 is complete control), Wheat” value (wheat; [1]) was 5 and the “Wheat plant response rating” value (wheat; [2]) was 5. The “Plant response rating, Wheat” value (wheat; [3]) was 20, the “Plant response rating, Wheat” value (wheat; [4]) was 10 and the “Plant response rating (scale of 0 to 100 where 0 is no effect and 100 is complete control), Soybean” value (soybean; [1]) was 45. For the same molecule, the “Soybean plant response rating” value (soybean; [2]) was 50, the “Plant response rating, Soybean” value (soybean; [4]) was 80 and the “Plant response rating (scale of 0 to 100 where 0 is no effect and 100 is complete control), Foxtail, Giant” value (foxtail, giant; [1]) was 5. For the same molecule, the “Foxtail, Giant plant response rating” value (foxtail, giant; [2]) was 40, the “Plant response rating, Foxtail, Giant” value (foxtail, giant; [3]) was 60 and the “Plant response rating, Foxtail, Giant” value (foxtail, giant; [4]) was 45. The “Plant response rating (scale of 0 to 100 where 0 is no effect and 100 is complete control), Ryegrass, Italian” value (ryegrass, Italian; [1]) was 5, the “Ryegrass, Italian plant response rating” value (ryegrass, Italian; [2]) was 5 and the “Plant response rating, Ryegrass, Italian” value (ryegrass, Italian; [3]) was 30. The “Plant response rating, Ryegrass, Italian” value (ryegrass, Italian; [4]) was 5.
